Tests used:
Assay type in all cases: physicochemical
[1] = Solubility in a water/ethanol mixture; conditions: proportion of water 20 wt %
Description: This dependency is depicted in FIG. 7. […] The required proportion of water is distinctly higher for other systems, so that the displacement can be carried out only at high dilution and thus with an inadequate space yield.

[2] = Short-term stability on storage at elevated temperature and elevated humidity
[3] = as above; conditions: 70° C.
Description: This is shown on comparison of the results of the temperature tests, moisture tests and in particular in light exposure tests.
(§1) On use of 11β-(4-acetylphenyl)-20,20,21,21,21-pentafluoro-17-hydroxy-19-nor-17α-pregna-4,9-dien-3-one as active ingredient in pharmaceutical preparations, the profile of impurities is of crucial importance. A compound which occurs on storage of this active ingredient is 11β-(4-acetylphenyl)-20,20,21,21,21-pentafluoro-17-hydroxy-9,10-epoxy-19-nor-10α,17α-pregna-1,4-dien-3-one. The toxicity of this compound is known. The content of this impurity must be below 0.2% until the shelf life of the pharmaceutical formulation expires. […] The amorphous solid is therefore unsuitable without stabilization for use in a medicinal product. With polymorph I, however, the increase in this critical impurity is virtually zero. Elaborate stabilization on use of polymorph I is therefore no longer necessary. The formation of the abovementioned epoxy impurity on storage of amorphous 11β-(4-acetylphenyl)-20,20,21,21,21-pentafluoro-17-hydroxy-19-nor-17α-pregna-4,9-dien-3-one at a temperature of 70° C. is 0.6% after only 15 days and as much as 1.1% after 30 days. On the other hand, on storage of polymorph I at the same temperature for 30 days, just 0.1% of the epoxy impurity is detectable.

[4] = Stability on storage under light (20 kLux); conditions: for decrease in the active ingredient content: initial values 98.4% and 95.4%
Description: The greater stability of polymorph I is even clearer on storage under light. […] The initial values were 98.4% and 95.4% here too.
as §1

[5] = Solid form conversion of the amorphous active ingredient under stress conditions; conditions: 15 d, 90° C./75% relative humidity
Description: It can be assumed that such a recrystallization also occurs on storage of the amorphous phase over a lengthy period at relatively low temperatures. Such a conversion is, however, undesired in the finished medicinal form because it may lead to an altered, non-reproducible release of the active ingredient, but may also influence the hardness of the medicinal form.

[6] = 50° C., 75% rel. humidity, 15 days
[7] = 50° C., 75% rel. humidity, 30 days
[8] = 50° C., no rel. humidity given, 15 days, initial content 98.4% or 95.4%
[9] = 50° C., no rel. humidity given, 30 days, initial content 98.4% or 95.4%
[10] = 70° C., 75% rel. humidity, 15 days
[11] = 70° C., 75% rel. humidity, 30 days
[12] = 70° C., no rel. humidity given, 15 days
[13] = 70° C., no rel. humidity given, 30 days
[14] = 90° C., 75% rel. humidity, 15 days
[15] = 90° C., no rel. humidity given, 15 days

SMILES | solubility relative to the solubility in pure ethanol [1] | decrease in the active ingredient content [2, 6] | decrease in the active ingredient content [2, 7] | decrease in the active ingredient content [2, 8] | decrease in the active ingredient content [2, 9] | decrease in the active ingredient content [2, 10] | decrease in the active ingredient content [2, 11] | decrease in the active ingredient content [2, 12] | decrease in the active ingredient content [2, 13] | decrease in the active ingredient content [2, 14] | decrease in the active ingredient content [2, 15] | formation of the epoxy impurity on storage ([3]; 30 days) | increase in the epoxy impurity ([4]; 20 kLux, 42 h) | increase in the epoxy impurity ([4]; 20 kLux, 66 h) | decrease in the active ingredient content ([4]; storage under 20 kLux for 42 h) | decrease in the active ingredient content ([4]; storage under 20 kLux for 66 h) | increase in the epoxy impurity ([4]; storage under stress conditions and under light) | formation of the epoxy impurity on storage ([3]; 15 days) | change of solid form on storage [5]
CC(=O)c1ccc([C@H]2C[C@@]3(C)[C@@H](CC[C@@]3(O)C(F)(F)C(F)(F)F)[C@@H]3CCC4=CC(=O)CCC4=C32)cc1 [11β-(4-Acetylphenyl)-20,20,21,21,21-pentafluoro-17-hydroxy-19-nor-17α-pregna-4,9-dien-3-one] | one-hundredth |  |  |  |  |  |  |  |  |  |  |  |  |  |  |  |  |  | 
CC(=O)c1ccc([C@H]2C[C@@]3(C)[C@@H](CC[C@@]3(O)C(F)(F)C(F)(F)F)[C@@H]3CCC4=CC(=O)CCC4=C32)cc1 [polymorph I, 11β-(4-acetylphenyl)-20,20,21,21,21-pentafluoro-17-hydroxy-19-nor-17α-pregna-4,9-dien-3-one] |  | 0% | −0.1% | 0% | −0.3% | −0.1% | −0.2% | −1.5% | −3.5% | −0.2% | −3.6% | 0.1% | 0.1% | 0.1% | −0.2% | −0.4% | below 0.2% |  | 
CC(=O)c1ccc([C@H]2C[C@@]3(C)[C@@H](CC[C@@]3(O)C(F)(F)C(F)(F)F)[C@@H]3CCC4=CC(=O)CCC4=C32)cc1 [amorphous, 11β-(4-acetylphenyl)-20,20,21,21,21-pentafluoro-17-hydroxy-19-nor-17α-pregna-4,9-dien-3-one] |  | −2.8% | −3.3% | −2.9% | −5.1% | −13.5% | −17.4% | −10.2% | −17.3% | −31.7% | −32.6% | 1.1% | 8.4% | 11.2% | −34% | −42% |  | 0.6% | Partial recrystallization to give polymorph I
